Results: patent US20020054880A1, “Anti-inflammatory, tolerogenic and immunoinhibiting properties of carbohydrate binding-peptides” (priority 1992, published 2002)
Entries after “also recorded” stand apart in the source; their conditions may differ.

Legend:
[1] = biological target: T1, PT-biotin binding to asialofetuin (Bos taurus, UniProt P12763); test: PT-biotin binding to asialofetuin, binding inhibition assay; parameters: species or system Bordetella pertussis; details: for Percent Changes in Binding Activity PT/asialo-fetuin: peptide mg/mL: S2PL 1.2, ACS2P1 1.0, S2P2 1.1, S2P3 0.51, S2P4 0.98, S2P6 0.85, S3P1 3.2, S3P2 3.1, S3P3 4.5, S3P4 3.3, S3P5 0.48, SPYGRC 4.4, + enhancement, − inhibition
T1 construct: made in house
T1 sequence (P12763 19-359): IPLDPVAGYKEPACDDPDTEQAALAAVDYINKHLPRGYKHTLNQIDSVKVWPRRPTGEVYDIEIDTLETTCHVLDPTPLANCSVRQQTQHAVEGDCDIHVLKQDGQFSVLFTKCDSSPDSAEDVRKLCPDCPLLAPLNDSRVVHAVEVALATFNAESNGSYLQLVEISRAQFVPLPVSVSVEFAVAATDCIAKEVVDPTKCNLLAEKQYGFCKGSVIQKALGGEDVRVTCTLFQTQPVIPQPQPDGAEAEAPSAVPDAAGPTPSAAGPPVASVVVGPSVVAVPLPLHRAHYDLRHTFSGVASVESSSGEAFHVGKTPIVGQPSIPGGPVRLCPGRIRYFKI
Procedure: (§1) Peptides ranging in concentration from 0.5 to 4.5 mg/ml in PBS (40 μl) were added to each well and PT-biotin (10 μl containing 10 ng in PBS) was then added to the microtiter wells. […] Horseradish peroxidase-conjugated avidin (100 μl, 1/3000 dilution in PBST to a concentration of 0.3 μg/ml) was then added to the wells, and the plates were incubated at ambient temperature for 1 hour. […] Color development was recorded at 405 nm using a Titertek Multiskan MC plate reader. […] Binding assays for each peptide were done in duplicate. Binding inhibition experiments utilizing SNA-, WGA-, and MAL-biotin were performed as described above using 10 ng of each biotinylated lectin in PBS.
(§2) Binding assays for each inhibitor concentration were done at least in duplicate, and the average value varied less than 15%.

[2] = biological target: T2, MAL-biotin binding to fetuin (Bos taurus, UniProt P12763); test: MAL-biotin binding to fetuin, binding inhibition assay; parameters: species or system Maackia amurensis; details: for Percent Changes in Binding Activity MAL/fetuin: peptide mg/mL: S2PL 1.2, ACS2P1 1.0, S2(14-2.3) 1.0, S2P2 1.1, S2P3 0.51, S2P4 0.98, S2P6 0.85, S3P1 3.2, S3P2 3.1, S3P3 4.5, S3P4 3.3, S3P5 0.48, S3P9a 1.7, SPYGRC 4.4, S2(WGA) 1.0, WGA (62-73) 1.0, + enhancement, − inhibition
T2 construct: purchased Sigma Chemical Company (fetuin); Boehringer Mannheim (MAL-biotin)
T2 sequence (P12763 19-359): T1 sequence (P12763 19-359)
Procedure: as §1, §2

[3] = biological target: T3, PT-biotin binding to fetuin (Bos taurus, UniProt P12763); test: PT-biotin binding to fetuin, binding inhibition assay; parameters: species or system Bordetella pertussis; details: for Percent Changes in Binding Activity PT/fetuin: peptide mg/mL: S2PL 1.2, ACS2P1 1.0, S2(14-2.3) 1.0, S2P2 1.1, S2P3 0.51, S2P4 0.98, S2P6 0.85, S3P1 3.2, S3P2 3.1, S3P3 4.5, S3P4 3.3, S3P5 0.48, S3P9a 1.7, SPYGRC 4.4, S2(WGA) 1.0, WGA (62-73) 1.0, + enhancement, − inhibition
T3 construct: purchased Sigma Chemical Company (fetuin); Connaught Center for Biotechnology Research (PT)
T3 sequence (P12763 19-359): T1 sequence (P12763 19-359)
Procedure: as §1, §2

[4] = biological target: T4, SNA-biotin binding to fetuin (Bos taurus, UniProt P12763); test: biochemical; details: peptide mg/mL: S2PL 1.2, ACS2P1 1.0, S2(14-2.3) 1.0, S2P2 1.1, S2P3 0.51, S2P4 0.98, S2P6 0.85, S3P1 3.2, S3P2 3.1, S3P3 4.5, S3P4 3.3, S3P5 0.48, S3P9a 1.7, SPYGRC 4.4, S2(WGA) 1.0, WGA (62-73) 1.0; + enhancement, − inhibition
T4 sequence (P12763 19-359): T1 sequence (P12763 19-359)
Procedure: (§3) The solution was removed by aspiration and replaced with 100 μl of 1% BSA in PBS containing 0.05% Tween 20 (PBST). After incubation for 2-4 hours at room temperature, the microtiter wells were washed four times with 300 μl of PBST. Peptides ranging in concentration from 0.5 to 4.5 mg/ml in PBS (40 μl) were added to each well and PT-biotin (10 μl containing 10 ng in PBS) was then added to the microtiter wells. After incubating for 1 hour, the binding reaction was stopped by aspirating the solutions and the plate was washed with PBST (300 μl). Horseradish peroxidase-conjugated avidin (100 μl, 1/3000 dilution in PBST to a concentration of 0.3 μg/ml) was then added to the wells, and the plates were incubated at ambient temperature for 1 hour. After washing the wells as described above, the substrate solution [1 mM ABTS in 5 mM citrate buffer, pH 4.2, containing 0.1% hydrogen peroxide, v/v) was added and the plates were incubated for 30 minutes. Color development was recorded at 405 nm using a Titertek Multiskan MC plate reader. Maximum binding was determined in the absence of peptide, and background binding was measured in wells coated with BSA only. Binding assays for each peptide were done in duplicate. Binding inhibition experiments utilizing SNA-, WGA-, and MAL-biotin were performed as described above using 10 ng of each biotinylated lectin in PBS.

[5] = biological target: T5, WGA-biotin binding to fetuin (Bos taurus, UniProt P12763); test: biochemical; details: for Percent Changes in Binding Activity WGA/fetuin: peptide mg/mL: S2PL 1.2, ACS2P1 1.0, S2(14-2.3) 1.0, S2P2 1.1, S2P3 0.51, S2P4 0.98, S2P6 0.85, S3P1 3.2, S3P2 3.1, S3P3 4.5, S3P4 3.3, S3P5 0.48, SPYGRC 4.4, S2(WGA) 1.0, WGA (62-73) 1.0, + enhancement, − inhibition
T5 sequence (P12763 19-359): T1 sequence (P12763 19-359)
Procedure: as §3

[6] = biological target: T6, ACS2P1-biotin binding to asialofetuin (Bos taurus, UniProt P12763); test: Screening of S2 and S3 peptides for inhibition of ACS2P1-biotin binding to asialofetuin; details: peptide μM: ACS2P1 4.1, S2P2 42.5, SPYGRC 5520, S2P3 22.4, S2P4 6.0, S2P6 319, S3P1 1142, S3P2 934, S3P3 16.1, S3P4 6.4, S3P5 22.5; ACS2P1-biotin 0.1 μg; − inhibition, + enhancement
T6 construct: made in house
T6 sequence (P12763 19-359): T1 sequence (P12763 19-359)

[7] = biological target: T7, ACS2P1-biotin binding to fetuin (Bos taurus, UniProt P12763); test: biochemical; details: peptide μM: ACS2P1 4.1, S2P2 42.5, SPYGRC 5520, S2P3 22.4, S2P4 6.0, S2P6 319, S3P1 1142, S3P2 934, S3P3 16.1, S3P4 6.4, S3P5 22.5; ACS2P1-biotin 0.1 μg; − inhibition, + enhancement
T7 construct: purchased Sigma Chemical Company
T7 sequence (P12763 19-359): T1 sequence (P12763 19-359)

Compound | Percent Changes in Binding Activity PT/asialo-fetuin [1] | IC50 [2] [µM] | effect on MAL-biotin binding to fetuin, in words [2] | Percent Changes in Binding Activity MAL/fetuin [2] | IC50 [3] [µM] | effect on PT-biotin binding to fetuin, in words [3] | Percent Changes in Binding Activity PT/fetuin [3] | Percent Changes in Binding Activity SNA/fetuin [4] | IC50 [5] [µM] | Percent Changes in Binding Activity WGA/fetuin [5] | Percent Change in Binding Activity Asialofetuin [6] | Percent Change in Binding Activity Fetuin [7] | effect on PT-biotin binding to asialofetuin, in words [1] | IC50 PT-b (asialofetuin) ([1]; wells coated with 3 μg/ml asialofetuin, 2-fold dilutions of peptide in PBS) | enhancement of PT-biotin binding to fetuin relative to control experiments in the absence of peptide ([3]; initial peptide screening) [fold]
CC[C@H](C)[C@H](NC(=O)[C@H](CS)NC(=O)[C@H](Cc1ccccc1)NC(=O)[C@@H](NC(=O)[C@@H](NC(=O)[C@H](CCCCN)NC(=O)[C@H](CC(C)C)NC(=O)[C@H](CC(=O)O)NC(=O)[C@H](Cc1ccccc1)NC(=O)[C@H](C)NC(=O)CN)[C@@H](C)O)[C@@H](C)O)C(=O)N[C@@H](CCSC)C(=O)N[C@H](C(=O)N[C@H](C(=O)N[C@@H](CCCNC(=N)N)C(=O)N[C@@H](CC(N)=O)C(=O)N[C@H](C(=O)NCC(=O)N[C@@H](CCC(N)=O)C(=O)N1CCC[C@H]1C(=O)N[C@@H](C)C(=O)O)[C@@H](C)O)[C@@H](C)O)[C@@H](C)O [Peptide S2P3] | −15(1) Percent | 860 ± 20 | inhibit binding to fetuin of all the biotinylated lectins; also recorded: very active at inhibiting | −18 ± 2% | 190 ± 90 | inhibit binding to fetuin of all the biotinylated lectins | −21 ± 0% | −15 ± 4% | 140 ± 30 | −56 ± 8% | +15 ± 11% | +70 ± 11% |  |  | 
CC[C@H](C)[C@H](NC(=O)[C@@H](NC(=O)[C@@H]1CCCN1C(=O)[C@H](CCC(N)=O)NC(=O)CNC(=O)[C@H](CO)NC(=O)[C@H](CCCNC(=N)N)NC(=O)[C@@H](NC(=O)[C@@H](N)Cc1ccccc1)C(C)C)C(C)C)C(=O)NCC(=O)N[C@@H](C)C(=O)N[C@@H](CS)C(=O)N[C@H](C(=O)N[C@@H](CO)C(=O)N1CCC[C@H]1C(=O)N[C@@H](Cc1ccc(O)cc1)C(=O)N[C@@H](CC(=O)O)C(=O)NCC(=O)N[C@@H](CCCCN)C(=O)N[C@@H](Cc1ccc(O)cc1)C(=O)N[C@@H](Cc1c[nH]c2ccccc12)C(=O)N[C@@H](CO)C(=O)N[C@@H](CCSC)C(=O)N[C@@H](Cc1ccc(O)cc1)C(=O)N[C@@H](CO)C(=O)N[C@@H](CCCNC(=N)N)C(=O)N[C@@H](CC(C)C)C(=O)N[C@@H](CCCNC(=N)N)C(=O)N[C@@H](CCCCN)C(=O)N[C@@H](CCSC)C(=O)N[C@@H](CC(C)C)C(=O)N[C@@H](Cc1ccc(O)cc1)C(=O)O)[C@@H](C)O [Peptide S2P6] | −18(1) Percent |  |  | +18 ± 16% | 220 ± 60 |  | −28 ± 6% | +2 ± 2% |  | +57 ± 0% | +18 ± 16% | +49 ± 5% |  |  | 
AGFIYRETFCITTIYKTGQPAADHYYSKVTA [Peptide S3P4] | +75 ± 50% |  |  | +7 ± 1% |  |  | +12 ± 2% | +1(1) Percent |  | +13 ± 1% | +26 ± 2% | +55 ± 26% |  |  | 
Ac-PQEQITQHGSPYGRC-NH2 [ACS2P1] | +190 ± 23% |  |  | +16 ± 9% |  |  | +89 ± 3% |  |  |  | +101 ± 2% |  |  |  | 
CASPYEGRYRDMYDALRRLLY [Peptide S3P5] | −26 ± 10% |  |  | +3 ± 6% |  |  | +14 ± 6% | 0(1) Percent |  | +35 ± 8% | −17 ± 8% | −19 ± 4% | reduce binding of PT to asialofetuin only; also recorded: inhibit PT-biotin's interaction with asialofetuin in a concentration-dependent manner | above the solubility limits of the peptide in PBS | 
H-SQYGYCGFGAEY-OH [WGA (62-73)] |  |  |  | −1 ± 4% | 1500 |  | −32 ± 5% | −3 ± 2% | 3400 | −9 ± 1% |  |  |  |  | 
PQEQITQHGSPYGRC [Peptide S2P1] | +113(1) Percent |  |  | +8 ± 4% |  | enhancement of binding of PT to fetuin | +85 ± 4% | −5 ± 1% |  | −18 ± 2% |  |  |  |  | ~2
PQEQITQHGSQYGYC [S2 (WGA)] |  |  |  | +22 ± 3% |  |  | +79 ± 15% | 0 ± 1% |  | −4 ± 3% |  |  |  |  | 
TQHGSPYGRC [S2 (14-23)] |  |  |  | +32 ± 1% |  |  | +68 ± 9% | +1 ± 2% |  | +7 ± 1% |  |  |  |  | 
